In patent publication US20260256792A1, “TREATMENT OF CHRONIC SPONTANEOUS URTICARIA BY ADMINISTERING (R)-2-[3-[4-AMINO-3-(2-FLUORO-4-PHENOXY-PHENYL)PYRAZOLO[3,4-D]PYRIMIDIN-1-YL]PIPERIDINE-1-CARBONYL]-4-METHYL-4-[4-(OXETAN-3-YL)PIPERAZIN-1-YL]PENT-2-ENENITRILE” (priority 2023, published 2026):

Tested on: moderate-to-severe chronic spontaneous urticaria (CSU)
Assay: Phase 2 CSU study: urticaria activity score over 7 days (UAS7)
Type: in vivo, human
Conditions: Omalizumab-Naïve
Source text: The study comprises a 12 week, randomized, double-blind, placebo-controlled, multi-center, dose-ranging efficacy and safety phase, followed by a 40 week open label extension (OLE) phase (see FIG. 1). The study consists of three phases and an optional OLE phase. […] Clinically, CSU is characterized by the spontaneous and recurrent appearance of pruritic hives. The proposed primary endpoints were the UAS7 at Week 12 in EU and EU reference countries and the ISS7 in the US. Regardless of where a participant was from, all assessments were the same. The UAS7 score is a composite score containing both the HSS7 and the ISS7. This allowed a global assessment of the two key components of urticaria: hives and itch. […] The UAS is a validated PRO measure. […] The daily UAS scores range from 0 to 6 point/day. […] Patients were to complete the UAS using the e-diary. […] The following secondary endpoints were to be analyzed using the same approach as for the primary endpoint: • Change from baseline in UAS7 at Week 4 • Change from baseline in UAS7 at Week 12 (for US and US reference countries) • Change from baseline in ISS7 at Week 12 (except US and US reference countries) • Change from baseline in HSS7 at Week 12 The following responder secondary endpoints were to be analyzed using the Cochran-Mantel-Haenszel test adjusted by region: • Proportion of participants with UAS7<6 at Week 12 • Proportion of participants with UAS7=0 at Week 12 Participants who received selected prohibited medications and/or rescue medications were to be considered as non-responders for time points after the medication usage. For other participants, all available data including those collected during the off-treatment period were to be used to determine the responder/non-responder status. Missing data were to be considered as non-responders.

[1] = Age group (years) ≥44 (Median), 400 mg QPM
[2] = Age group (years) ≥44 (Median), 400 mg TID
[3] = Age group (years) ≥65, 400 mg BID
[4] = Age group (years) ≥65, 400 mg QPM
[5] = Age group (years) ≥65, 400 mg TID
[6] = Baseline BHRA BHRA+, 400 mg BID
[7] = Baseline BHRA BHRA+, 400 mg QPM
[8] = Baseline BHRA BHRA+, 400 mg TID
[9] = Baseline BHRA BHRA−, 400 mg BID
[10] = Baseline BHRA BHRA−, 400 mg QPM
[11] = Baseline BHRA BHRA−, 400 mg TID
[12] = Baseline Eosinophils (10^9/L) <0.150, 400 mg BID
[13] = Baseline Eosinophils (10^9/L) <0.150, 400 mg TID
[14] = Baseline Eosinophils (10^9/L) <0.165 (Median), 400 mg BID
[15] = Baseline Eosinophils (10^9/L) <0.165 (Median), 400 mg QPM
[16] = Baseline Eosinophils (10^9/L) <0.165 (Median), 400 mg TID
[17] = Baseline Eosinophils (10^9/L) <0.3, 400 mg BID
[18] = Baseline Eosinophils (10^9/L) <0.3, 400 mg QPM
[19] = Baseline Eosinophils (10^9/L) <0.3, 400 mg TID
[20] = Baseline Eosinophils (10^9/L) ≥0.150, 400 mg BID
[21] = Baseline Eosinophils (10^9/L) ≥0.150, 400 mg TID
[22] = Baseline Eosinophils (10^9/L) ≥0.165 (Median), 400 mg BID
[23] = Baseline Eosinophils (10^9/L) ≥0.165 (Median), 400 mg QPM
[24] = Baseline Eosinophils (10^9/L) ≥0.165 (Median), 400 mg TID

CC(C)(C=C(C#N)C(=O)N1CCC[C@@H](n2nc(-c3ccc(Oc4ccccc4)cc3F)c3c(N)ncnc32)C1)N1CCN(C2COC2)CC1 [rilzabrutinib, (R)-2-[3-[4-amino-3-(2-fluoro-4-phenoxy-phenyl)pyrazolo[3,4-d]pyrimidin-1-yl]piperidine-1-carbonyl]-4-methyl-4-[4-(oxetan-3-yl)piperazin-1-yl]pent-2-enenitrile]
Change from Baseline in UAS7 at Week 12: LS Mean Diff vs. placebo (95% CI) [1]: 2.72 (−5.76, 11.20) | Change from Baseline in UAS7 at Week 12: Mean (SD) [1]: −10.71 (7.99) | Change from Baseline in UAS7 at Week 12: LS Mean (SE) [2]: −17.54 (2.39) | Change from Baseline in UAS7 at Week 12: LS Mean Diff vs. placebo (95% CI) [2]: −5.98 (−13.92, 1.95) | Change from Baseline in UAS7 at Week 12: Mean (SD) [2]: −19.17 (11.98) | Change from Baseline in UAS7 at Week 12: LS Mean (SE) [3]: −21.85 (10.98) | Change from Baseline in UAS7 at Week 12: Mean (SD) [3]: −29.00 (NC)^ | Change from Baseline in UAS7 at Week 12: LS Mean (SE) [4]: −1.73 (17.36) | Change from Baseline in UAS7 at Week 12: LS Mean Diff vs. placebo (95% CI) [4]: −3.19 (−44.28, 37.89) | Change from Baseline in UAS7 at Week 12: Mean (SD) [4]: −16.33 (NC) ^ | Change from Baseline in UAS7 at Week 12: LS Mean (SE) [5]: −23.81 (7.07) | Change from Baseline in UAS7 at Week 12: Mean (SD) [5]: −24.13 (14.17) | Change from Baseline in UAS7 at Week 12: LS Mean (SE) [6]: −19.58 (5.46) | Change from Baseline in UAS7 at Week 12: LS Mean Diff vs. placebo (95% CI) [6]: −10.09 (−27.02, 6.84) | Change from Baseline in UAS7 at Week 12: Mean (SD) [6]: −19.50 (10.03) | Change from Baseline in UAS7 at Week 12: LS Mean (SE) [7]: −17.03 (6.45) | Change from Baseline in UAS7 at Week 12: LS Mean Diff vs. placebo (95% CI) [7]: −7.53 (−24.53, 9.46) | Change from Baseline in UAS7 at Week 12: Mean (SD) [7]: −19.94 (5.28) | Change from Baseline in UAS7 at Week 12: LS Mean (SE) [8]: −22.12 (5.72) | Change from Baseline in UAS7 at Week 12: LS Mean Diff vs. placebo (95% CI) [8]: −12.63 (−29.25, 4.00) | Change from Baseline in UAS7 at Week 12: Mean (SD) [8]: −22.13 (16.40) | Change from Baseline in UAS7 at Week 12: LS Mean (SE) [9]: −12.39 (2.21) | Change from Baseline in UAS7 at Week 12: LS Mean Diff vs. placebo (95% CI) [9]: −2.42 (−8.35, 3.52) | Change from Baseline in UAS7 at Week 12: LS Mean (SE) [10]: −8.95 (2.08) | Change from Baseline in UAS7 at Week 12: LS Mean Diff vs. placebo (95% CI) [10]: 1.02 (−4.73, 6.78) | Change from Baseline in UAS7 at Week 12: Mean (SD) [10]: −9.96 (9.08) | Change from Baseline in UAS7 at Week 12: LS Mean (SE) [11]: −16.51 (2.11) | Change from Baseline in UAS7 at Week 12: LS Mean Diff vs. placebo (95% CI) [11]: −6.53 (−12.28, −0.79) | Change from Baseline in UAS7 at Week 12: Mean (SD) [11]: −18.52 (10.75) | Change from Baseline in UAS7 at Week 12: LS Mean Diff vs. placebo (95% CI) (Baseline BMI (kg/m^2) ≥30, 400 mg BID): −1.65 (−13.49, 10.19) | Change from Baseline in UAS7 at Week 12: LS Mean Diff vs. placebo (95% CI) (Baseline BMI (kg/m^2) ≥30, 400 mg QPM): −0.43 (−11.59, 10.72) | Change from Baseline in UAS7 at Week 12: LS Mean Diff vs. placebo (95% CI) (Baseline BMI (kg/m^2) ≥30, 400 mg TID): −7.58 (−20.66, 5.50) | Change from Baseline in UAS7 at Week 12: LS Mean (SE) [12]: −13.60 (3.19) | Change from Baseline in UAS7 at Week 12: LS Mean Diff vs. placebo (95% CI) [12]: −0.54 (−8.95, 7.87) | Change from Baseline in UAS7 at Week 12: LS Mean (SE) [13]: −20.09 (3.11) | Change from Baseline in UAS7 at Week 12: LS Mean Diff vs. placebo (95% CI) [13]: −7.04 (−15.34, 1.27) | Change from Baseline in UAS7 at Week 12: LS Mean (SE) [14]: −14.30 (2.83) | Change from Baseline in UAS7 at Week 12: LS Mean Diff vs. placebo (95% CI) [14]: −1.83 (−9.50, 5.84) | Change from Baseline in UAS7 at Week 12: Mean (SD) [14]: −11.24 (8.98) | Change from Baseline in UAS7 at Week 12: LS Mean (SE) [15]: −7.71 (2.71) | Change from Baseline in UAS7 at Week 12: LS Mean Diff vs. placebo (95% CI) [15]: 4.76 (−2.75, 12.26) | Change from Baseline in UAS7 at Week 12: Mean (SD) [15]: 9.46 (8.63) | Change from Baseline in UAS7 at Week 12: LS Mean (SE) [16]: −19.82 (2.96) | Change from Baseline in UAS7 at Week 12: LS Mean Diff vs. placebo (95% CI) [16]: −7.36 (−15.23, 0.52) | Change from Baseline in UAS7 at Week 12: Mean (SD) [16]: −21.57 (13.01) | Change from Baseline in UAS7 at Week 12: LS Mean (SE) [17]: −15.05 (2.31) | Change from Baseline in UAS7 at Week 12: LS Mean Diff vs. placebo (95% CI) [17]: −4.89 (−11.04, 1.26) | Change from Baseline in UAS7 at Week 12: Mean (SD) [17]: −14.90 (12.30) | Change from Baseline in UAS7 at Week 12: LS Mean (SE) [18]: −9.19 (2.15) | Change from Baseline in UAS7 at Week 12: LS Mean Diff vs. placebo (95% CI) [18]: 0.97 (−5.00, 6.93) | Change from Baseline in UAS7 at Week 12: Mean (SD) [18]: −10.75 (8.91) | Change from Baseline in UAS7 at Week 12: LS Mean (SE) [19]: −18.29 (2.31) | Change from Baseline in UAS7 at Week 12: LS Mean Diff vs. placebo (95% CI) [19]: −8.14 (−14.29, −1.98) | Change from Baseline in UAS7 at Week 12: Mean (SD) [19]: −19.99 (12.00) | Change from Baseline in UAS7 at Week 12: LS Mean (SE) [20]: −14.57 (2.57) | Change from Baseline in UAS7 at Week 12: LS Mean Diff vs. placebo (95% CI) [20]: −7.68 (−15.25, −0.11) | Change from Baseline in UAS7 at Week 12: LS Mean (SE) [21]: −14.80 (2.58) | Change from Baseline in UAS7 at Week 12: LS Mean Diff vs. placebo (95% CI) [21]: −7.92 (−15.27, −0.56) | Change from Baseline in UAS7 at Week 12: LS Mean (SE) [22]: −14.13 (2.87) | Change from Baseline in UAS7 at Week 12: LS Mean Diff vs. placebo (95% CI) [22]: −7.01 (−15.24, 1.22) | Change from Baseline in UAS7 at Week 12: Mean (SD) [22]: −17.73 (14.16) | Change from Baseline in UAS7 at Week 12: LS Mean (SE) [23]: −10.83 (2.83) | Change from Baseline in UAS7 at Week 12: LS Mean Diff vs. placebo (95% CI) [23]: −3.71 (−11.80, 4.38) | Change from Baseline in UAS7 at Week 12: Mean (SD) [23]: −11.84 (10.30) | Change from Baseline in UAS7 at Week 12: LS Mean (SE) [24]: −14.63 (2.71) | Change from Baseline in UAS7 at Week 12: LS Mean Diff vs. placebo (95% CI) [24]: −7.52 (−15.32, 0.28)
